Source: patent US12653827B2, “Methods of treating indolent systemic mastocytosis” (Telios Pharma Inc., priority 2024, dated 2026)

Key:
[1] = test system: calcium influx in human mast cells; test: Calcium flux assay in antigen-stimulated human mast cells; type: cell-based; conditions: treated 2 hours, NP-BSA stimulation
Experimental: Human mast cells were derived from bone marrow CD34+ cells from six healthy donors for up to eight weeks by culturing CD34+ cells in StemSpan SFEM II (Stem Cell Technologies) supplemented with stem cell factor (SCF; 100 ng/mL; R&D System), IL-6 (R&D Systems), IL-3 (R&D Systems) and 1% penicillin/streptomycin (P/S; Gibco) for the first 10 days and in StemSpan SFEM II supplemented with SCF and IL-6 and 1% P/S for the remaining time in culture. […] Supernatant was collected and histamine levels were measured using a Histamine ELISA kit (Eagle Biosciences). […] Percent of activated mast cells was calculated as number of activated mast cells over the total number of mast cells.
Compound 128 Inhibits Calcium Signaling in Human Mast Cells. […] The median fluorescence intensity of cytosolic calcium was measured across the stimulation time period and graphed to represent the calcium influx profile. The area under the curve (AUC) of the calcium influx profile was calculated and normalized as a percent of stimulated control. […]

[2] = test system: IL-8, MCP-1, GM-CSF and IL-13; test: MRGPRX2-mediated cytokine production in ISM-like mast cells; type: cell-based, human
Experimental: (§1) Human mast cells were differentiated from bone marrow CD34+ cells from four healthy donors and were cultured in the presence of SCF (100 ng/mL) to mimic mast cells in ISM and treated with Compound 128 for two hours prior to stimulation. Mas-related G protein-coupled receptor (MRGPRX2) agonists, Compound 48/80 (C48/80; a product of N-methyl-p-methoxyphenethylamine with formaldehyde) or Substance P (SP) were used to activate the MRGPRX2 pathway. For pBTK test, cells were stimulated with C48/80 (10 μg/mL) for ten minutes at 37° C. and cells were stained. The median fluorescence intensity of phosphorylated BTK was measured. The fold change over unstimulated control for pBTK was calculated. For cytokine test, cells were stimulated with C48/80 (10 μg/mL) or SP (30 μM) for four hours at 37° C. Supernatant was collected and cytokine levels were measured using the BD Cytometric Bead Array (CBA) human soluble protein master buffer kit (Becton Dickinson) and BD CBA human soluble protein flex sets for IL-8, MCP-1, GM-CSF and IL-13 (Becton Dickinson). Cytokine levels were measured and normalized to percent of control, with 0% representing the level of the unstimulated control.

BTK = BTK (Homo sapiens, UniProt Q06187); test: MRGPRX2-induced BTK phosphorylation in ISM-like mast cells; type: cell-based; parameters: endogenous in cells; host or cells: Primary human mast cells differentiated from bone marrow CD34+ cells of healthy donors, cultured with SCF; conditions: 0.1 μM; C48/80 stimulation
Experimental: as §1

BTK, sequence (Q06187 whole entry): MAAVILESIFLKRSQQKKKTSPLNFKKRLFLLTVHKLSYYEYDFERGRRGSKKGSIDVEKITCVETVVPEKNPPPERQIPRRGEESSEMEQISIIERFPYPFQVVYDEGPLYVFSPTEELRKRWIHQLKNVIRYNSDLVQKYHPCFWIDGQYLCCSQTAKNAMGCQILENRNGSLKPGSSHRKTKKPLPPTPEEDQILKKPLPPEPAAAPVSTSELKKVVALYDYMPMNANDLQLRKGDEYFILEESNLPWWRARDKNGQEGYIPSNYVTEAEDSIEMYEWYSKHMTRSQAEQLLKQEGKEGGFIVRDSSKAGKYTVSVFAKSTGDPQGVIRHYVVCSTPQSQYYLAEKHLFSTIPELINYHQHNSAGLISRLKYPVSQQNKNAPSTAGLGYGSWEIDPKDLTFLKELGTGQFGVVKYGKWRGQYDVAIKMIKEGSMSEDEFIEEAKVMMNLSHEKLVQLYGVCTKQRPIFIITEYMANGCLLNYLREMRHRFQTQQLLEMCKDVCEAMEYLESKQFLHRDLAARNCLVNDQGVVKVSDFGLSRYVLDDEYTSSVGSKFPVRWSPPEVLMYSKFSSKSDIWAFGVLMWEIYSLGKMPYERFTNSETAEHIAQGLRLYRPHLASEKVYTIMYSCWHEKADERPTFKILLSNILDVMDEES

## C=CC(=O)N1CCC(F)(CNc2ncnc(N)c2-c2ccc(Oc3ccccc3)cc2)CC1 [Compound 128, 1-(4-(((6-amino-5-(4-phenoxyphenyl)pyrimidin-4-yl)amino)methyl)-4-fluoropiperidin-1-yl)prop-2-en-1-one]
[1]; ISM-like (+SCF) mast cells
  mast cells undergoing calcium influx (AUC, percent of stimulated control): less than 7%
[1]; healthy (−SCF) mast cells
  mast cells undergoing calcium influx (AUC, percent of stimulated control): < 3%
[2]; 0.1 μM
  MRGPRX2-mediated cytokine production: partially inhibited
[2]; 0.5 and 1 μM
  MRGPRX2-mediated cytokine production: inhibition of cytokine production was increased
[2]; C48/80 (10 μg/mL) stimulation
  C48/80-mediated cytokine production: partial inhibition
[2]; FIGS. 15A-C
  MRGPRX2-mediated cytokine production in ISM-like mast cells (figure legend): inhibits
[2]; Substance P (30 μM) stimulation
  SP-mediated cytokine production: fully inhibited
BTK
  MRGPRX2-induced BTK phosphorylation: inhibited
